Test results taken from patent US9732047B2, “N-alkoxyamide conjugates as imaging agents” (Lantheus Medical Imaging, Inc., priority 2008, dated 2017).
Where two headings read alike, the source gives them in different places.

Columns and labels:
[1] = system: Aorta bearing atherosclerotic plaque; test: Ex-vivo blood vessel binding assay; set-up: species or system New Zealand white rabbits; conditions: 153Gd-labeled compound 0.135 μCi in PBS, 2 h at 37° C., plaque-bearing rabbit aorta sections; percentage of initial activity
Experimental: Aorta bearing atherosclerotic plaque was obtained from New Zealand white rabbits that were balloon stripped along the abdominal aorta and placed on a high fat diet (0.5% cholesterol) for 16-22 weeks. Vascular injury was produced with a 4-F Fogarty catheter along the abdominal aorta and right iliofemoral artery. This procedure generates an accelerated complex lesion development with a lipid rich core covered by a fibrous cap in rabbits. Harvested aorta sections (0.5 cm) were incubated with 0.135 μCi of ^153Gd-labeled compound diluted in phosphate buffered saline (450 μL) for 2 h at 37° C. The supernatant was removed and analyzed by HPLC to assay compound stability. The tissue section was then washed with phosphate buffered saline (3×10 mL), then resuspended (10 mL) and incubated at 37° C. an additional 1 h. The supernatant was then removed, the washing process repeated and the tissue finally counted on a gamma counter. The amount of compound bound to the tissue was determined as a percentage of the initial activity according to the following formula: […]

[2] = system: aorta; conditions: 60 min post injection; for aorta uptake (% ID/g): ApoE mice on high-fat diet 35-42 weeks, 0.3-0.4 mCi/kg bolus via tail vein; for aorta:blood / aorta:heart: ApoE mice, uptake ratio
Experimental: The apolipoprotein E (ApoE) knockout mouse is a model of hypercholesterolemia that develops atherosclerotic lesions in the brachiocephalic artery, the aortic arch and the abdominal aorta. Mice were fed a high-fat diet to accelerate plaque formation and compounds were tested in the mice between 35-42 weeks on diet. Test compounds were administered at 0.3-0.4 mCi/kg to anesthetized mice in a single, bolus injection via the tail vein. Blood samples were collected via the tail between 0-30 min post injection for pharmacokinetic analysis and mice were euthanized by CO2 at 60 min for tissue harvesting. The aorta was first flushed with saline through the left ventricle exiting via the femoral vein then removed from the heart to the renal bifurcation; additional biological samples were also collected (blood, muscle, liver, kidney, bile, urine, heart, femur, reproductive organ, lung, spleen and innominate artery). All samples were weighed and assayed for radioactivity; uptake is expressed as a percentage of injected dose per gram of tissue (% ID/g).

[3] = system: aorta; conditions: 60 min post injection; for aorta (% ID/g ± SD): 0.01-0.05 mCi/kg bolus via marginal ear vein
Experimental: Atherosclerosis was induced in New Zealand White male rabbits (3 kg) with aortic balloon endothelial injury (vide supra) followed by feeding a 0.5% cholesterol diet for 22 weeks. Test compounds were administered at 0.01-0.05 mCi/kg to anesthetized rabbits in a single, bolus injection via the marginal ear vein. Blood samples were collected from the central ear artery at 0, 2, 5, 7, 10, 15, 30 and 60 min post injection. Rabbits were euthanized at 60 min post injection for tissue harvesting (blood, muscle, bile, urine, kidney, liver, spleen, heart, lung, colon, small intestine, stomach, testes and in some cases, sternum, ligament and right ear). Abdominal aorta (upper, middle, and lower) and left and right femoral arteries were also collected. All samples were weighed and assayed for radioactivity; uptake is expressed as percentage of injected dose per gram of tissue (% ID/g).

[4] = control rabbit (non-plaque bearing)

Compound | % bound [1] | aorta uptake (% ID/g) [2] | aorta:blood [2] | aorta:heart [2] | aorta (% ID/g ± SD) ([3]; plaque rabbit) | aorta:blood ([3]; plaque rabbit) | aorta:heart ([3]; plaque rabbit) | aorta (% ID/g ± SD) [3, 4] | aorta:blood ([3]; control rabbit) | aorta:heart ([3]; control rabbit)
[153Gd+3].[NH3+][C@H](CCc1ccccc1)C(=O)NOCc1ccc(CNC(=O)CN(CCN(CC(=O)[O-])CC(=O)[O-])CCN(CC(=O)[O-])CC(=O)[O-])cc1 [Example 37] | 12.8% | 10.4 ± 1.4 % ID/g | 4.2 | 16.2 | 0.087 ± 0.010 % ID/g | 2.1 | 4.6 | – | – | –
[153Gd+3].[NH3+][C@H](CCc1ccccc1)C(=O)NOCCc1ccc(CNC(=O)CN(CCN(CC(=O)[O-])CC(=O)[O-])CCN(CC(=O)[O-])CC(=O)[O-])cc1 [Example 50] | 24.2% | 10.4 ± 2.4 % ID/g | 3.7 | 13.5 | – | – | – | – | – | –
[153Gd+3].[NH3+][C@H](Cc1ccc(-c2ccccc2)cc1)C(=O)NOCCCCCCNC(=O)CN(CCN(CC(=O)[O-])CC(=O)[O-])CCN(CC(=O)[O-])CC(=O)[O-] [Example 41] | 28.7% | 2.0 ± 0.1 % ID/g | 7.2 | 20.4 | – | – | – | – | – | –
N[C@H](Cc1cc2ccccc2[nH]1)C(=O)NOCc1ccc(CNC(=O)CN2CCN(CC(=O)[O-])CCN(CC(=O)[O-])CCN(CC(=O)[O-])CC2)cc1.[153Gd+3] [Example 62] | 17.1% | 11.8 ± 1.4 % ID/g | 5.7 | 22.2 | – | – | – | 0.159 % ID/g | 3.2 | 6.4
CC(C)C[C@@H](N)C(=O)NOCc1ccc(CNC(=O)CN2CCN(CC(=O)[O-])CCN(CC(=O)[O-])CCN(CC(=O)[O-])CC2)cc1.[153Gd+3] [Example 59] | 5.2% | 8.2 ± 1.3 % ID/g | 3.7 | 15.4 | – | – | – | – | – | –
[153Gd+3].[NH3+][C@H](Cc1cc2ccccc2[nH]1)C(=O)NOCc1ccc(CNC(=O)CN(CCN(CC(=O)[O-])CC(=O)[O-])CCN(CC(=O)[O-])CC(=O)[O-])cc1 [Example 61] | 19.9% | 19.3 ± 0.2 % ID/g | 10.9 | 20.4 | – | – | – | – | – | –
O=C([O-])CN1CCN(CC(=O)[O-])CCN(CC(=O)NCc2ccc(CNC(CCc3ccccc3)C(=O)NOCc3ccccc3)cc2)CCN(CC(=O)[O-])CC1.[153Gd+3] (centres unmarked) [Example 53] | – | 1.5 ± 0.1 % ID/g | 0.8 | 4.2 | – | – | – | – | – | –
[153Gd+3].[NH3+][C@@H](CCc1ccccc1)C(=O)NOCc1ccc(CNC(=O)CN(CCN(CC(=O)[O-])CC(=O)[O-])CCN(CC(=O)[O-])CC(=O)[O-])cc1 [Example 39] | 15.8% | 6.1 ± 0.4 % ID/g | 11.4 | 13.6 | – | – | – | – | – | –
CC(C)C[C@@H]([NH3+])C(=O)NOCc1ccc(CNC(=O)CN(CCN(CC(=O)[O-])CC(=O)[O-])CCN(CC(=O)[O-])CC(=O)[O-])cc1.[153Gd+3] [Example 56] | – | 8.5 ± 1.8 % ID/g | 5.5 | 21.2 | – | – | – | – | – | –
CC(C)C[C@@H]([NH3+])C(=O)NOCCc1ccc(CNC(=O)CN(CCN(CC(=O)[O-])CC(=O)[O-])CCN(CC(=O)[O-])CC(=O)[O-])cc1.[153Gd+3] [Example 49] | 9.1% | 4.9 ± 0.2 % ID/g | 5.5 | 22.9 | – | – | – | – | – | –
[153Gd+3].[NH3+][C@H](Cc1c[nH]c2ccccc12)C(=O)NOCCCc1ccc(CNC(=O)CN(CCN(CC(=O)[O-])CC(=O)[O-])CCN(CC(=O)[O-])CC(=O)[O-])cc1 [Example 43] | 27.1% | 6.0 ± 1.7 % ID/g | 2.7 | 9.0 | – | – | – | – | – | –
[153Gd+3].[NH3+][C@H](CCc1ccccc1)C(=O)NOCCCc1ccc(CNC(=O)CN(CCN(CC(=O)[O-])CC(=O)[O-])CCN(CC(=O)[O-])CC(=O)[O-])cc1 [Example 44] | 27.3% | 8.4 ± 0.2 % ID/g | 3.2 | 12.5 | – | – | – | – | – | –
[153Gd+3].[NH3+][C@H](CCc1ccccc1)C(=O)NOc1ccc(CNC(=O)CN(CCN(CC(=O)[O-])CC(=O)[O-])CCN(CC(=O)[O-])CC(=O)[O-])cc1 [Example 47] | 6.6% | 4.7 ± 0.4 % ID/g | 0.7 | 4.8 | – | – | – | – | – | –
[153Gd+3].[NH3+][C@H](Cc1ccc2ccccc2c1)C(=O)NOCc1ccc(CNC(=O)CN(CCN(CC(=O)[O-])CC(=O)[O-])CCN(CC(=O)[O-])CC(=O)[O-])cc1 [Example 57] | 30.6% | 11.1 ± 0.3 % ID/g | 5.0 | 17.8 | – | – | – | – | – | –
N[C@H](CCc1ccccc1)C(=O)NOCc1ccc(CNC(=O)CN2CCN(CC(=O)[O-])CCN(CC(=O)[O-])CCN(CC(=O)[O-])CC2)cc1.[153Gd+3] [Example 38] | 19.1% | 11.6 ± 0.8 % ID/g | 5.5 | 20.5 | 0.103 ± 0.002 % ID/g | 2.4 | 5.1 | 0.196 ± 0.023 % ID/g | 5.1 | 11.0
[153Gd+3].[NH3+][C@H](CCc1ccccc1)C(=O)NOCCCCCCNC(=O)CN(CCN(CC(=O)[O-])CC(=O)[O-])CCN(CC(=O)[O-])CC(=O)[O-] [Example 45] | 14.4% | 9.0 ± 0.2 % ID/g | 2.1 | 12.1 | – | – | – | – | – | –
CC(C)C[C@@H]([NH3+])C(=O)NOc1ccc(CNC(=O)CN(CCN(CC(=O)[O-])CC(=O)[O-])CCN(CC(=O)[O-])CC(=O)[O-])cc1.[153Gd+3] [Example 46] | 0.9% | 0.9 ± 0.2 % ID/g | 1.1 | 4.9 | – | – | – | – | – | –
N[C@H](Cc1ccc(CNC(=O)CN2CCN(CC(=O)[O-])CCN(CC(=O)[O-])CCN(CC(=O)[O-])CC2)cc1)C(=O)NOCc1ccccc1.[153Gd+3] [Example 55] | – | 3.0 ± 2.3 % ID/g | 1.0 | 8.8 | – | – | – | – | – | –
CONC(=O)C(CCc1ccccc1)NCc1ccc(CNC(=O)CN2CCN(CC(=O)[O-])CCN(CC(=O)[O-])CCN(CC(=O)[O-])CC2)cc1.[153Gd+3] (centres unmarked) [Example 52] | 6.9% | 6.1 ± 1.2 % ID/g | 2.0 | 9.2 | – | – | – | – | – | –
[153Gd+3].[NH3+][C@H](Cc1ccc(O)cc1)C(=O)NOCc1ccc(CNC(=O)CN(CCN(CC(=O)[O-])CC(=O)[O-])CCN(CC(=O)[O-])CC(=O)[O-])cc1 [Example 63] | 11.7% | 8.7 ± 0.4 % ID/g | 6.0 | 13.0 | – | – | – | – | – | –
CONC(=O)[C@H](N)Cc1ccc(CNC(=O)CN2CCN(CC(=O)[O-])CCN(CC(=O)[O-])CCN(CC(=O)[O-])CC2)cc1.[153Gd+3] [Example 54] | – | 2.5 ± 0.5 % ID/g | 1.2 | 5.3 | – | – | – | – | – | –
[153Gd+3].[NH3+][C@H](CC1CCCCC1)C(=O)NOCCCCCCNC(=O)CN(CCN(CC(=O)[O-])CC(=O)[O-])CCN(CC(=O)[O-])CC(=O)[O-] [Example 42] | 17.9% | 8.1 ± 1.1 % ID/g | 8.0 | 18.0 | – | – | – | – | – | –
[153Gd+3].[NH3+][C@H](Cc1ccccc1)C(=O)NOCc1ccc(CNC(=O)CN(CCN(CC(=O)[O-])CC(=O)[O-])CCN(CC(=O)[O-])CC(=O)[O-])cc1 [Example 58] | 7.3% | 6.1 ± 0.2 % ID/g | 6.5 | 17.9 | – | – | – | – | – | –
CC(C)C[C@@H]([NH3+])C(=O)NOCCCCCCNC(=O)CN(CCN(CC(=O)[O-])CC(=O)[O-])CCN(CC(=O)[O-])CC(=O)[O-].[153Gd+3] [Example 40] | 7.2% | 3.6 ± 0.3 % ID/g | 3.4 | 8.4 | – | – | – | – | – | –
